According to patent publication US9314464B2, “Compounds and compositions as protein kinase inhibitors” (Novartis AG, priority 2009, dated 2016):

What was measured:
[1] = Liver Microsomal Clearance Assay, mouse; type: in vitro ADME; conditions: extraction ratio, mouse liver microsomes
Experimental: (§1) Liver Microsomal Clearance Assay
(§2) The in vitro microsomal clearance assay is designed to assess potential risks associated with hepatic metabolic stability of compounds. The test compound (1 μM) was incubated with liver microsomes (0.5 mg/mL) from different species (mouse, rat, monkey, dog and human) and NADPH (1 mM) in 100 mM potassium phosphate buffer at 37° C. At specific reaction time points (0, 5, 10 and 30 minutes), reaction aliquots were removed and reactions were terminated by addition of ice cold acetonitrile containing mass spectrometry internal standard. The samples were centrifuged and the supernatants were analyzed by LC-MS/MS. In vitro metabolic half-life (t1/2, min) and intrinsic clearance (CLint, μL/min/mg) are based on the rate and extent of metabolism of the test compound as determined by the disappearance of the parent compound from the reaction mixture. These values may be scaled to predict hepatic metabolic clearance rate (CLh, mL/min/kg) and extraction ratio (ER, expressed as a ratio of the predicted hepatic metabolic clearance to hepatic blood flow in that species). In general, compounds with high predicted CLint or ER in vitro are considered to be at high risk for exposure-limiting metabolism in vivo.

[2] = target: B-Raf V600E (Homo sapiens (Human), UniProt P15056, V600E); assay: B-Raf V600E/Mek Amplified Luminescence Proximity Homogeneous Assay (B-Raf V600E biochemical); conditions: read-out: BRAF V600E biochemical IC50
Experimental: The plate was incubated for 60 minutes at room temperature.
The B-Raf kinase activity reaction was started by the addition of 10 μl per well of 2×ATP (10 μM) diluted in assay buffer. After 3 hours, the reactions were stopped with the addition of 10 μl of stop reagent (60 mM EDTA, 0.01% Tween20). Phosphorylated product was measured using a rabbit anti-p-MEK (Cell Signaling, #9121) antibody and the Alpha Screen IgG (ProteinA) detection Kit (PerkinElmer #6760617R), by the addition of 30 μl to the well of a mixture of the antibody (1:2000 dilution) and detection beads (1:1000 dilution of both beads) in bead buffer (50 mM Tris, pH 7.5, 0.01% Tween20). The additions were carried out under dark conditions to protect the detection beads from light. A lid was placed on top of the plate and the plate was incubated for 1 hour at room temperature. The luminescence was read on a PerkinElmer Envision instrument. The concentration of each compound for 50% inhibition (IC50) was calculated by non-linear regression using XL Fit data analysis software.

[3] = Liver Microsomal Clearance Assay, human; type: in vitro ADME; conditions: extraction ratio, human liver microsomes
Experimental: as §1, §2

[4] = In Vivo Pharmacokinetics Assay in mouse; conditions: for bioavailability at 24 h: 10 mg/kg, PO/IV 10/2 mg/kg; for clearance at 24 h: IV 2 mg/kg
Experimental: (§3) Full pharmacokinetics study: Male Balb/c mice (n=3, body weights 22-25 g) or male Wistar rats (n=3, body weights 250-300 g) were administered the test compound intravenously via the lateral tail vein or orally via gavage. The formulation was typically a 2.5 mg/mL solution of the compound in 75% PEG300 and 25% D5W. Six blood samples of 50 μL each were collected serially for 24 h after dosing. The blood samples were centrifuged to separate the plasma. Plasma samples were analyzed and quantified by LC-MS/MS.
as §3, with “Rapid” for “Full”, “intravenously (IV)” for “intravenously”, “orally (PO)” for “orally”, “Blood” for “The blood”, “and plasma separated and pooled across” for “to separate”, “three animals at each time point per dose route.” for “plasma.”
For both full and rapid pharmacokinetics studies, the following parameters were calculated by non-compartmental regression analysis using Winnonlin 5.0 software (Pharsight, Mountain View, Calif., USA): plasma clearance (Cl), plasma maximum concentration (Cmax), plasma area-under-the-concentration-time-curve (AUC0-inf), and percent oral bioavailability (F %).

[5] = system: A375 cells; assay: In Vivo Efficacy - 14 Day A375 Mouse Xenograft Model
Experimental: A375 cells were grown in sterile conditions in a 37° C. incubator with 5% CO2 for two to four weeks. The cells were cultured in RPMI-1640 media supplemented with 10% FBS. Cells were passaged twice weekly with 0.05% Trypsin/EDTA. On the day of implant, cells were harvested in HBSS (Hank's Balanced Salt Solution). Female Nu/Nu mice (Charles River, 10-11 weeks at start of study) were implanted with 5×10^6 A375 cells/mouse in 50% matrigel, 0.2 mL SQ right flank on day 1. At 19 days post-implant, mice were randomized into 6 groups (9 mice per group), with an average tumor volume of 215 mm^3 and average body weight of 24 g. Test compound was dosed BID for 14 days commencing on day 19 using a dosing volume 0.2 mL per dose, with compound formulated at the appropriate concentration to attain the desired dose level. Clinical observations were made daily. Tumor volume and body weight were measured twice weekly.
Tumor volume results were assessed at 14 days post-first dose. Partial response is defined as having tumor growth 20-50% of control tumor growth. Stable disease is defined as having final tumor volume within +/−20% of initial tumor size. Partial regression is defined as having final tumor volume<80% of initial tumor volume.

[6] = system: SW620 cells; assay: SW620 Cell Viability Assay (Cell Titer Glo); type: cell-based; conditions: FIG. 1, compound alone
Experimental: The present invention also includes combinations of the BRaf inhibitors disclosed in this invention with other agents. In particular, the present invention provides for combinations with MEK1/2 inhibitors. FIG. 1 illustrates that the addition of a MEK small molecule inhibitor can reverse the induced ERK signaling, cell growth and transformation caused by a Raf small molecule inhibitor.
SW620 cells were seeded in 1640 RPMI+10% FBS at a density of 1500 cells per 96-well in black walled, clear bottom tissue culture treated plates. Test compounds were serially diluted in DMSO then added to the cells (final DMSO concentration of 0.1%) and incubated at 37° C. and 5% CO2 for 4 days. To measure cell viability, cell plates were brought to room temperature, culture media was removed, and 200 μl of Cell Titer-Glo reagent (Promega, kit components mixed as per the manufacturer's protocol then diluted 1:2 with growth media) was added to each well. Plates were shaken for 5 minutes, then incubated at room temperature for 5 minutes, and the luminescence was measured (Trilux, Perkin Elmer).

[7] = male, Balb/c, plasma, PO 10 mg/kg

Chain of B-Raf V600E (P15056 whole entry V600E): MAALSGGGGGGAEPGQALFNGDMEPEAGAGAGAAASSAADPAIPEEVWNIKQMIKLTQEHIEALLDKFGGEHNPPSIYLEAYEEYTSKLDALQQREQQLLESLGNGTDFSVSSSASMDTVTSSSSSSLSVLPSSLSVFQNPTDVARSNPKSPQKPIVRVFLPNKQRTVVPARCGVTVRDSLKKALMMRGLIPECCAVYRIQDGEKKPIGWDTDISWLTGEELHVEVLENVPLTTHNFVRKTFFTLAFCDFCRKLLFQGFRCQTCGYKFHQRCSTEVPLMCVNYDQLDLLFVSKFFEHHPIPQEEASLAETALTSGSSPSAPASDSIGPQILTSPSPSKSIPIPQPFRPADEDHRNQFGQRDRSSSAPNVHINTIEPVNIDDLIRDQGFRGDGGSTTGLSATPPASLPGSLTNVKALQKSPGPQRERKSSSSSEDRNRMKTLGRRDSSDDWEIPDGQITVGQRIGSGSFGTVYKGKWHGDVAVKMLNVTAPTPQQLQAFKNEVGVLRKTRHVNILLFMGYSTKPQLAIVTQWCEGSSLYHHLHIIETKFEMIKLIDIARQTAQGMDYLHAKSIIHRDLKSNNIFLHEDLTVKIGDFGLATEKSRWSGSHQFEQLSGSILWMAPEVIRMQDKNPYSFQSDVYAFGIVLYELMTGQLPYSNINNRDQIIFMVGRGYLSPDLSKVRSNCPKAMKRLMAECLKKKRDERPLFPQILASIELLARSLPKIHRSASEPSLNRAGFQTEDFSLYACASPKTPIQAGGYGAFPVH

| Compound | ER Mouse [1] | IC50 [2] [nM] | ER Human [3] | bioavailability at 24 h ([4]; male, Balb/c, plasma) [%] | clearance at 24 h ([4]; male, Balb/c, plasma) [mL/min/kg] | AUC at 24 h [4, 7] [µM·h] | Cmax at 24 h [4, 7] [µM] | Tumor volume result ([5]; 1 mg/kg bid×14, 14 days post-first dose) | Tumor volume result ([5]; 3 mg/kg bid×14, 14 days post-first dose) | Tumor volume result ([5]; 10 mg/kg bid×14, 14 days post-first dose) | Tumor volume result ([5]; 20 mg/kg bid×14, 14 days post-first dose) | cellular proliferation in Cell Titer Glo assay [6] | PO AUC ([4]; PO 10 mg/kg) [µM·h] | AUC ([4]; male, Balb/c, plasma, oral dose of 10 mg/kg) [µM·h] |
| --- | --- | --- | --- | --- | --- | --- | --- | --- | --- | --- | --- | --- | --- | --- |
| CCCS(=O)(=O)Nc1ccc(F)c(-c2nn(C(C)C)cc2-c2ccnc(NC[C@H](C)NC(=O)OC)n2)c1F [Compound 7, Methyl N-[(2S)-1-[(4-{3-[2,6-difluoro-3-(propane-1-sulfonamido)phenyl]-1-(propan-2-yl)-1H-pyrazol-4-yl}pyrimidin-2-yl)amino]propan-2-yl]carbamate] | 0.91 | 0.7 | 0.65 | 8 ± 7 | 99 ± 13 | 0.24 ± 0.21 | 0.15 ± 0.07 |  |  |  |  |  |  |  |
| COC(=O)N[C@@H](C)CNc1nccc(-c2cn(C(C)C)nc2-c2cc(Cl)cc(NS(C)(=O)=O)c2F)n1 [Compound 9, Methyl N-[(2S)-1-({4-[3-(5-chloro-2-fluoro-3-methanesulfonamidophenyl)-1-(propan-2-yl)-1H-pyrazol-4-yl]pyrimidin-2-yl}amino)propan-2-yl]carbamate] | 0.48 |  | <0.21 | 43 ± 6 | 4.3 ± 0.4 |  | 27 ± 4 | partial response (Partial response is defined as having tumor growth 20-50% of control tumor growth) | stable disease (Stable disease is defined as having final tumor volume within +/−20% of initial tumor size) | partial regression (Partial regression is defined as having final tumor volume<80% of initial tumor volume) | partial regression (Partial regression is defined as having final tumor volume<80% of initial tumor volume) | induction in cellular proliferation | 30 ± 4 | 30 ± 4 |
